Patent US10723741B1, “DNA polymerase IIIC inhibitors and use thereof” (Acurx Pharmaceuticals, LLC, priority 2018, dated 2020)
≈ marks a conversion by molar mass, not a printed value.

Tests used:
Assay type in all cases: cell-based
[1] = test system: Escherichia coli ATCC 25922; experiment: Broth microdilution MIC, E. coli ATCC 25922 (MHIIB w & w/o 4 mM EDTA); settings: broth microdilution, 37° C., 20 hours; for MIC: Escherichia coli, ATCC25922, without EDTA, read-out: MIC E. coli ATCC 25922; for MIC E. coli ATCC 25922 + 4 mM EDTA: with 4 mM EDTA
How it was run: (§1)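 Broth microdilution in strain-specific test medium with ~5.0×10^5 cfu/ml inoculum, 1% DMSO and two-fold compound dilutions from 64 to 0.0625 μg/ml. Plates were held 20 hours at 37° C in ambient air. S. pneumoniae colonies were grown beforehand on blood agar in 5% CO2.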

[2] = test system: Staphylococcus aureus ATCC 29213 (MSSA); experiment: Broth microdilution MIC, S. aureus ATCC 29213 (MSSA); settings: broth microdilution, 37° C., 20 hours, read-out: MIC S. aureus ATCC 29213 (MSSA)
How it was run: as §1

[3] = test system: Streptococcus pneumoniae ATCC 49619; experiment: Broth microdilution MIC, S. pneumoniae ATCC 49619; settings: ATCC49619, broth microdilution, 37° C., 20 hours, read-out: MIC S. pneumoniae ATCC 49619
How it was run: as §1

Structure (SMILES)	MIC [1] [µg/mL]	MIC E. coli ATCC 25922 + 4 mM EDTA [1] [µg/mL]	MIC [2] [µg/mL]	MIC [3] [µg/mL]
O=c1[nH]c(NCc2ccc(Cl)c(Cl)c2)nc2cn[nH]c12 [Compound 77, 5-((3,4-dichlorobenzyl)amino)-1H-pyrazolo[4,3-d]pyrimidin-7(6H)-one]	> 64	>64	8 (≈ 25.8 µM)	4 (≈ 12.9 µM)
COCCn1ncc2nc(NCc3ccc(Cl)c(Cl)c3)[nH]c(=O)c21 [Compound 126, 5-((3,4-dichlorobenzyl)amino)-1-(2-methoxyethyl)-1H-pyrazolo[4,3-d]pyrimidin-7(6H)-one]	> 64	>64	2 (≈ 5.43 µM)	2 (≈ 5.43 µM)
Cn1ncc2nc(NCc3ccc(Cl)c(Cl)c3)[nH]c(=O)c21 [Compound 2, 5-((3,4-Dichlorobenzyl)amino)-1-methyl-1H-pyrazolo[4,3-d]pyrimidin-7(6H)-one]	> 64	>64	2 (≈ 6.17 µM)	4 (≈ 12.3 µM)
O=C(O)CCC(=O)N1CCC(n2ncc3nc(NCc4ccc(Cl)c(Cl)c4)[nH]c(=O)c32)CC1 [Compound 273, 4-(4-(5-((3,4-dichlorobenzyl)amino)-7-oxo-6,7-dihydro-1H-pyrazolo[4,3-d]pyrimidin-1-yl)piperidin-1-yl)-4-oxobutanoic Acid]	> 64	>64	> 64	32 (≈ 64.9 µM)
Cc1nn(C)c2c(=O)[nH]c(NCc3ccc(Cl)c(Cl)c3)nc12 [Compound 44, 5-((3,4-dichlorobenzyl)amino)-1,3-dimethyl-1H-pyrazolo[4,3-d]pyrimidin-7(6H)-one]	> 64	>64	2 (≈ 5.91 µM)	4 (≈ 11.8 µM)
O=c1[nH]c(NCc2ccc(Cl)c(Cl)c2)nc2cnn(C3CCCC3)c12 [Compound 214, 1-cyclopentyl-5-((3,4-dichlorobenzyl)amino)-1H-pyrazolo[4,3-d]pyrimidin-7(6H)-one]	> 64	>64	2 (≈ 5.29 µM)	8 (≈ 21.1 µM)
Cl.O=c1[nH]c(NCc2ccc(Cl)c(Cl)c2)nc2cnn(CC3CNCCO3)c12 (centres unmarked) [Compound 149, 5-((3,4-dichlorobenzyl)amino)-1-(morpholin-2-ylmethyl)-1H-pyrazolo[4,3-d]pyrimidin-7(6H)-one hydrochloride]	> 64	64	16	4

Other lines, results leading:

MIC [1] [µg/mL]	MIC E. coli ATCC 25922 + 4 mM EDTA [1] [µg/mL]	MIC [2] [µg/mL]	MIC [3] [µg/mL]	Structure (SMILES)
> 64	>64	1 (≈ 2.59 µM)	8 (≈ 20.7 µM)	O=c1[nH]c(NCc2ccc(Cl)c(Cl)c2)nc2cnn(-c3ccccc3)c12 [Compound 212, 5-[(3,4-dichlorophenyl)methylamino]-1-phenyl-6H-pyrazolo[4,3-d]pyrimidin-7-one]
> 64	>64	1 (≈ 2.86 µM)	2 (≈ 5.71 µM)	C=CCn1ncc2nc(NCc3ccc(Cl)c(Cl)c3)[nH]c(=O)c21 [Compound 56, 1-allyl-5-((3,4-dichlorobenzyl)amino)-1H-pyrazolo[4,3-d]pyrimidin-7(6H)-one]
> 64	>64	32	4	CN(C)CCOCCn1ncc2nc(NCc3ccc(Cl)c(Cl)c3)[nH]c(=O)c21.Cl [Compound 211, 5-((3,4-dichlorobenzyl)amino)-1-(2-(2-(dimethylamino)ethoxy)ethyl)-1H-pyrazolo[4,3-d]pyrimidin-7(6H)-one hydrochloride]
> 64	>64	1 (≈ 2.86 µM)	4 (≈ 11.4 µM)	O=c1[nH]c(NCc2ccc(Cl)c(Cl)c2)nc2cnn(C3CC3)c12 [Compound 213, 1-Cyclopropyl-5-((3,4-dichlorobenzyl)amino)-1H-pyrazolo[4,3-d]pyrimidin-7(6H)-one]
> 64	>64	1 (≈ 2.36 µM)	2 (≈ 4.71 µM)	COC(=O)CCCCn1ncc2nc(NCc3ccc(Cl)c(Cl)c3)[nH]c(=O)c21 [Compound 218, methyl 5-[5-[(3,4-dichlorophenyl)methylamino]-7-oxo-6H-pyrazolo[4,3-d]pyrimidin-1-yl]pentanoate]
> 64	32	8	2	Cl.O=c1[nH]c(NCc2ccc(Cl)c(Cl)c2)nc2cnn(C3CCN(C4CCOCC4)CC3)c12 [Compound 242, 5-((3,4-dichlorobenzyl)amino)-1-(1-(tetrahydro-2H-pyran-4-yl)piperidin-4-yl)-1H-pyrazolo[4,3-d]pyrimidin-7(6H)-one hydrochloride]
> 64	>64		16	Cl.Cl.O=c1[nH]c(NCc2ccc(Cl)c(Cl)c2)nc2cnn(CCOCCN3CCNCC3)c12 [Compound 167, 5-[(3,4-dichlorophenyl)methylamino]-1-[2-(2-piperazin-1-ylethoxy)ethyl]-6H-pyrazolo[4,3-d]pyrimidin-7-one]
> 64	>64	> 64	8 (≈ 15.6 µM)	O=C([C@@H](O)[C@H](O)CO)N1CCC(n2ncc3nc(NCc4ccc(Cl)c(Cl)c4)[nH]c(=O)c32)CC1 [Compound 276, 5-((3,4-dichlorobenzyl)amino)-1-(1-((2S,3R)-2,3,4-trihydroxybutanoyl)piperidin-4-yl)-1H-pyrazolo[4,3-d]pyrimidin-7(6H)-one]
